pIC50: −log10 of the molar value.
Tests used:
WEE1 = molecular target: T1, WEE1 (Homo sapiens, UniProt P30291+Q96SW2); assay: Western-blot assay of substrate protein degradation in hPBMCs, WEE1; format: cell-based; details: 24 hours of compound treatment
T1 construct: endogenous in cells; host or cells: hPBMCs (Milecell Biotechnologies)

IKZF1 = molecular target: T2, IKZF1 (Homo sapiens, UniProt Q13422+Q96SW2); assay: Western-blot assay of substrate protein degradation in hPBMCs, IKZF1; format: cell-based; details: 24 hours of compound treatment
T2 construct: endogenous in cells; host or cells: hPBMCs (Milecell Biotechnologies)
T2 sequence (Q13422 whole entry): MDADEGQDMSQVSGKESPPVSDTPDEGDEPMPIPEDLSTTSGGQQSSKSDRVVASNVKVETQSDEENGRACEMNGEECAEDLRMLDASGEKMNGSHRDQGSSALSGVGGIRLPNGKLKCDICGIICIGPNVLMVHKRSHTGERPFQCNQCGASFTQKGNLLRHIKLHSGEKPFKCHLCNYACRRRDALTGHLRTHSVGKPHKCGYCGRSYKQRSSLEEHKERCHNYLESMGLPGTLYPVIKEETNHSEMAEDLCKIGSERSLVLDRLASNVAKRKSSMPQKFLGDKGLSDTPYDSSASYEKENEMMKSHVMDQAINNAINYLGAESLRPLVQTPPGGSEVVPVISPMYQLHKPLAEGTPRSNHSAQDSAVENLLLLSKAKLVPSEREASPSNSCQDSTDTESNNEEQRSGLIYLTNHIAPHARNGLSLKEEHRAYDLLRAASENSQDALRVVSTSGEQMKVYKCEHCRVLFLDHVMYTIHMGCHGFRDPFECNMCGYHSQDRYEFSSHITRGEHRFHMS
T2 sequence (Q96SW2 whole entry): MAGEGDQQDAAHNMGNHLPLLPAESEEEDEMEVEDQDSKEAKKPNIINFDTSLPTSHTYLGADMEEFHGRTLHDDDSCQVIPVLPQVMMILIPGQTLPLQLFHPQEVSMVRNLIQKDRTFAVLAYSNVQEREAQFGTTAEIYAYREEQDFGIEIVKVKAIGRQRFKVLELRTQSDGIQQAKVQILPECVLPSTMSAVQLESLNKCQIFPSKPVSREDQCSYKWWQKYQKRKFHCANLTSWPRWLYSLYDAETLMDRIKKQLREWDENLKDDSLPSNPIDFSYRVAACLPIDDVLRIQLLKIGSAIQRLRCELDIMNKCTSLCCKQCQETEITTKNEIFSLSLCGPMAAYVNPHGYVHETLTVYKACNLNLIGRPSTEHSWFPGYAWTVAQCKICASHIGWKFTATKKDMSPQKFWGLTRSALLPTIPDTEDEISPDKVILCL
T2 sequence (Q16531 whole entry partner): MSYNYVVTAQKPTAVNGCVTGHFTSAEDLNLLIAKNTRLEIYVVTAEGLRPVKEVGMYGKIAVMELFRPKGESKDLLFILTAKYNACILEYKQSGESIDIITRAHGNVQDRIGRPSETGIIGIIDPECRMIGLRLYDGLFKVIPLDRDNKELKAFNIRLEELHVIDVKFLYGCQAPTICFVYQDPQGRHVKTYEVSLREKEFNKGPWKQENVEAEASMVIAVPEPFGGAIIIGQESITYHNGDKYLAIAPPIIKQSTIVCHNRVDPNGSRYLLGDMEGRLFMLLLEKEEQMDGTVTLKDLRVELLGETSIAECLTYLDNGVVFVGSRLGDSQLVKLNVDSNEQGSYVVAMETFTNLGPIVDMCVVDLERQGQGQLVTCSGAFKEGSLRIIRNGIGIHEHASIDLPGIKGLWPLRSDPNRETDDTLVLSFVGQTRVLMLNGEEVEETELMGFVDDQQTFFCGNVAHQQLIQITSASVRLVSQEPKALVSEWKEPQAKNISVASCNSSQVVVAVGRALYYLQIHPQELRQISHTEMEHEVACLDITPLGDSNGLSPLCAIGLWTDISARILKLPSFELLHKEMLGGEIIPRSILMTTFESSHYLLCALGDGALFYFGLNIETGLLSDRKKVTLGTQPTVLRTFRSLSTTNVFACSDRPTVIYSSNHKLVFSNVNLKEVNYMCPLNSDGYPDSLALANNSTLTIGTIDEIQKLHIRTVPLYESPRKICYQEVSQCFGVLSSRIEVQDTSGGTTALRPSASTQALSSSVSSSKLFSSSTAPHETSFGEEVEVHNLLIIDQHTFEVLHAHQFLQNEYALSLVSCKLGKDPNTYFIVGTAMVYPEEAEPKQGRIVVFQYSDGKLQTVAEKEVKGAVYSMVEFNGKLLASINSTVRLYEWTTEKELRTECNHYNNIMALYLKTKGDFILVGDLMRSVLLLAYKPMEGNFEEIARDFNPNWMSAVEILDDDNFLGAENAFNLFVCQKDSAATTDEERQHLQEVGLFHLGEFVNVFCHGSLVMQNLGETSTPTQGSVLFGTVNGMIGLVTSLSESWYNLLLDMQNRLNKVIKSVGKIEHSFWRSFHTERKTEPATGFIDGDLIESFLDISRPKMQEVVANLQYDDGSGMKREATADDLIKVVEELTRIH

IKZF2 = molecular target: T3, IKZF2 (Homo sapiens, UniProt Q96SW2+Q9UKS7); assay: Western-blot assay of substrate protein degradation in hPBMCs, IKZF2; format: cell-based; details: 24 hours of compound treatment
T3 construct: endogenous in cells; host or cells: hPBMCs (Milecell Biotechnologies)
T3 sequence (Q9UKS7 whole entry): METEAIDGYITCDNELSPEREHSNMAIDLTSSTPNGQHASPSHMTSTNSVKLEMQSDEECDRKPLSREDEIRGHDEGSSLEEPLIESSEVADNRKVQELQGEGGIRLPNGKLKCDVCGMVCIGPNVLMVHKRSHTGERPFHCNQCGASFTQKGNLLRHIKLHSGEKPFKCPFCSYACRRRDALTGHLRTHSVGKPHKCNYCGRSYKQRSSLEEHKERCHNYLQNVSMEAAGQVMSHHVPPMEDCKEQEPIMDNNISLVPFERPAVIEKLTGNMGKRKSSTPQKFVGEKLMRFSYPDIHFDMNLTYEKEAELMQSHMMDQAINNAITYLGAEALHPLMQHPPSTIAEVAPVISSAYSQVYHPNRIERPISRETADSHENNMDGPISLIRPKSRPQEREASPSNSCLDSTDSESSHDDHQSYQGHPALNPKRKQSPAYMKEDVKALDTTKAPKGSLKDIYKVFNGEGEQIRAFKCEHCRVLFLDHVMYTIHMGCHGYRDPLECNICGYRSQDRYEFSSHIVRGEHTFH
T3 sequence (Q96SW2 whole entry): as the sequence (Q96SW2 whole entry) above
T3 sequence (Q16531 whole entry partner): as the sequence (Q16531 whole entry partner) above

IKZF3 = molecular target: T4, IKZF3 (Homo sapiens, UniProt Q96SW2+Q9UKT9); assay: Western-blot assay of substrate protein degradation in hPBMCs, IKZF3; format: cell-based; details: 24 hours of compound treatment
T4 construct: endogenous in cells; host or cells: hPBMCs (Milecell Biotechnologies)
T4 sequence (Q9UKT9 whole entry): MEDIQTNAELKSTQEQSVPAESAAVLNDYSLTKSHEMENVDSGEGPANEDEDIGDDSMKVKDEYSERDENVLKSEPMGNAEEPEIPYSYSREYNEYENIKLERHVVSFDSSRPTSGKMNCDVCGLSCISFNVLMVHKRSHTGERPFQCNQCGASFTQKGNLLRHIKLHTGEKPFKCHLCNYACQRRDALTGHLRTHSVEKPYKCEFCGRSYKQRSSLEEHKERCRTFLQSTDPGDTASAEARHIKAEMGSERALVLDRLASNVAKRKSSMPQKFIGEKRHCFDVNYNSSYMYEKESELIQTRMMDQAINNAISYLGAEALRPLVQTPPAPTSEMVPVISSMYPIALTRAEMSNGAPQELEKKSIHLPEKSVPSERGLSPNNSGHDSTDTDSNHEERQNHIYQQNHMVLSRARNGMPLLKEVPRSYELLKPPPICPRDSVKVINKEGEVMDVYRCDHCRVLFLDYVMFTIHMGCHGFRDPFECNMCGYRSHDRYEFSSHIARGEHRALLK
T4 sequence (Q96SW2 whole entry): as the sequence (Q96SW2 whole entry) above
T4 sequence (Q16531 whole entry partner): as the sequence (Q16531 whole entry partner) above

CK1α = molecular target: T5, CK1α (Homo sapiens, UniProt P48729+Q96SW2); assay: Western-blot assay of substrate protein degradation in hPBMCs, CK1α; format: cell-based; details: 24 hours of compound treatment
T5 construct: endogenous in cells; host or cells: hPBMCs (Milecell Biotechnologies)

GSPT1 = molecular target: T6, GSPT1 (Homo sapiens, UniProt P15170+Q96SW2); assay: Western-blot assay of substrate protein degradation in hPBMCs, GSPT1; format: cell-based; details: 24 hours of compound treatment
T6 construct: endogenous in cells; host or cells: hPBMCs (Milecell Biotechnologies)
T6 sequence (P15170 whole entry): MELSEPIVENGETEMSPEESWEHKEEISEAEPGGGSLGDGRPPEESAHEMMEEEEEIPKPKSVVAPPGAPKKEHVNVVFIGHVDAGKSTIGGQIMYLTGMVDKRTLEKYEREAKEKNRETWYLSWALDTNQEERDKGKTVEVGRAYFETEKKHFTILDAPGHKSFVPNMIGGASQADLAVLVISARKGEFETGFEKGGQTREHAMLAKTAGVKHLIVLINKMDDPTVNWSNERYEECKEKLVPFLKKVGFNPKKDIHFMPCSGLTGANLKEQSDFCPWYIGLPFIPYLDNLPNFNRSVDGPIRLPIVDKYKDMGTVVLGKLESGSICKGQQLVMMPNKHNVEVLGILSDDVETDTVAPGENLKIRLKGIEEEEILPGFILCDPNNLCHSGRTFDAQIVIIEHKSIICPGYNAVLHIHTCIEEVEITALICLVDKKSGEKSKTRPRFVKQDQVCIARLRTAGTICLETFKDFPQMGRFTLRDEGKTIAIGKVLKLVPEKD
T6 sequence (Q96SW2 whole entry): as the sequence (Q96SW2 whole entry) above
T6 sequence (Q16531 whole entry partner): as the sequence (Q16531 whole entry partner) above

[1] = molecular target: T7, human Cereblon WT GST-tagged protein (Homo sapiens, UniProt Q96SW2); assay: CRBN-binding affinity by HTRF (CEREBLON BINDING kit); details: HTRF inhibitory activity, CEREBLON BINDING kit; read-out: HTRF IC50
T7 construct: purchased CISBIO 64BDCRBNPEH
T7 sequence (Q96SW2 whole entry): as the sequence (Q96SW2 whole entry) above

MM.1S = assay: Tumor cell proliferation inhibition (CellTiter-Meiluncell Luminescent Cell Viability Assay), MM.1S; details: Homo sapiens, MM1.S, read-out: inhibitory activity (IC50, nM) against tumor cells proliferation, MM.1S
Jurkat = assay: Tumor cell proliferation inhibition (CellTiter-Meiluncell Luminescent Cell Viability Assay), Jurkat; details: Homo sapiens, read-out: inhibitory activity (IC50, nM) against tumor cells proliferation, Jurkat
[2] = tested on: Human acute T lymphocytic leukemia cells (Molt-4); assay: Tumor cell proliferation inhibition (CellTiter-Meiluncell Luminescent Cell Viability Assay), Molt-4; details: MOLT-4, read-out: inhibitory activity (IC50, nM) against tumor cells proliferation, Molt-4
MV-4-11 = assay: Tumor cell proliferation inhibition (CellTiter-Meiluncell Luminescent Cell Viability Assay), MV-4-11; details: Homo sapiens, MV4-11, read-out: inhibitory activity (IC50, nM) against tumor cells proliferation, MV-4-11
CCRF-CEM = assay: Tumor cell proliferation inhibition (CellTiter-Meiluncell Luminescent Cell Viability Assay), CCRF-CEM; details: Homo sapiens, read-out: inhibitory activity (IC50, nM) against tumor cells proliferation, CCRF-CEM
[3] = compounds tested at 50 nM and 500 nM (concentration of the table not stated)
[4] = 50 nM and 500 nM tested (concentration behind the class not stated)

T1 sequence (P30291 whole entry): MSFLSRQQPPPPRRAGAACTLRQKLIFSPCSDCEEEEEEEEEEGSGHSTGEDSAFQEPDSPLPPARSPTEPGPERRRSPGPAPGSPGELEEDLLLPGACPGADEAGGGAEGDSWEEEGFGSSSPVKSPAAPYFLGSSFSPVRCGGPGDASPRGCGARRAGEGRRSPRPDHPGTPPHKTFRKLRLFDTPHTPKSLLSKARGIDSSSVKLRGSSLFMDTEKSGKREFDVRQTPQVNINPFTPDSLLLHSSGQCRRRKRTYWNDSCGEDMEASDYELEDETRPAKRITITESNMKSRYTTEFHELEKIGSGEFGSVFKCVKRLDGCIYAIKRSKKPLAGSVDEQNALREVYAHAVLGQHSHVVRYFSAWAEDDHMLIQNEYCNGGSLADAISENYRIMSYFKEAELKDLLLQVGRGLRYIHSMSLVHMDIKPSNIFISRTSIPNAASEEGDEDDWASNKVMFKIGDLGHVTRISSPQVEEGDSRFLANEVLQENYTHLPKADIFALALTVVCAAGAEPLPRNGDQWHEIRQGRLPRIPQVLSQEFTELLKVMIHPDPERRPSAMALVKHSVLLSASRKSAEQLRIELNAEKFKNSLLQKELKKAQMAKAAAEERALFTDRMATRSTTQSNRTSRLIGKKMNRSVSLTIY
T1 sequence (Q96SW2 whole entry): as the sequence (Q96SW2 whole entry) above
T1 sequence (Q16531 whole entry partner): as the sequence (Q16531 whole entry partner) above

Row | Structure (SMILES) | Weel substrate protein remaining % (WEE1; [3]) | IKZF 1 substrate protein remaining % (IKZF1; [3]) | IKZF2 substrate protein remaining % (IKZF2; [3]) | IKZF3 substrate protein remaining % (IKZF3; [3]) | CK1a substrate protein remaining % (CK1α; [3]) | GSPT1 substrate protein remaining % (GSPT1; [3]) | pIC50 [1] | IC50 (MM.1S) [nM] | Weel substrate protein remaining % (WEE1; [4]) | IKZF 1 substrate protein remaining % (IKZF1; [4]) | IKZF2 substrate protein remaining % (IKZF2; [4]) | IKZF3 substrate protein remaining % (IKZF3; [4]) | CK1a substrate protein remaining % (CK1α; [4]) | GSPT1 substrate protein remaining % (GSPT1; [4]) | IC50 (Jurkat) [nM] | IC50 [2] [nM] | IC50 (MV-4-11) [nM] | IC50 (CCRF-CEM) [nM]
1 | O=C1CCC(N2Cc3cc(CN4CCCN(c5cccc(Cl)c5Cl)CC4)ccc3C2=O)C(=O)N1 (centres unmarked) [GT-04856, 3-(5-((4-(2,3-dichlorophenyl)-1,4-diazepan-1-yl)methyl)-1-oxoisoindolin-2-yl)piperidine-2,6-dione] | A (0% ≤ substrate protein remaining % ≤ 80%) | A (0% ≤ substrate protein remaining % ≤ 80%) | A (0% ≤ substrate protein remaining % ≤ 80%) | A (0% ≤ substrate protein remaining % ≤ 80%) | B (80%< substrate protein remaining %≤ 100%) | A (0% ≤ substrate protein remaining % ≤ 80%) | 6.00 to 6.30 | 10 to 50 |  |  |  |  |  |  |  |  |  | 
2 | O=C1CCC(N2C(=O)c3ccc(CN4CC=C(c5cncc(Cl)c5Cl)CC4)cc3C2=O)C(=O)N1 (centres unmarked) [GT-06609, 5-((4,5-dichloro-3',6'-dihydro-[3,4'-bipyridin]-1'(2'H)-yl)methyl)-2-(2,6-dioxopiperidin-3-yl)isoindoline-1,3-dione] |  |  |  |  |  |  | 6.00 to 6.30 |  | A (0% ≤ substrate protein remaining % ≤ 80%) | A (0% ≤ substrate protein remaining % ≤ 80%) | A (0% ≤ substrate protein remaining % ≤ 80%) | A (0% ≤ substrate protein remaining % ≤ 80%) | B (80%< substrate protein remaining %≤ 100%) | A (0% ≤ substrate protein remaining % ≤ 80%) | 100 to 500 | 100 to 500 | 100 to 500 | 100 to 500
3 | O=C1CCC(N2C(=O)c3ccc(CN4CC=C(c5cncc(Cl)c5)CC4)cc3C2=O)C(=O)N1 (centres unmarked) [GT-06611, 5-((5-chloro-3',6'-dihydro-[3,4'-bipyridin]-1'(2'H)-yl)methyl)-2-(2,6-dioxopiperidin-3-yl)isoindoline-1,3-dione] |  |  |  |  |  |  |  |  | A (0% ≤ substrate protein remaining % ≤ 80%) | A (0% ≤ substrate protein remaining % ≤ 80%) | A (0% ≤ substrate protein remaining % ≤ 80%) | A (0% ≤ substrate protein remaining % ≤ 80%) | A (0% ≤ substrate protein remaining % ≤ 80%) | A (0% ≤ substrate protein remaining % ≤ 80%) |  | 500 to 1000 | 100 to 500 | 100 to 500
4 | O=C1CCC(N2C(=O)c3ccc(CN4CC=C(c5ncccc5F)CC4)cc3C2=O)C(=O)N1 (centres unmarked) [GT-06612, 2-(2,6-dioxopiperidin-3-yl)-5-((3-fluoro-3',6'-dihydro-[2,4'-bipyridin]-1'(2'H)-yl)methyl)isoindoline-1,3-dione] |  |  |  |  |  |  |  |  | A (0% ≤ substrate protein remaining % ≤ 80%) | A (0% ≤ substrate protein remaining % ≤ 80%) | A (0% ≤ substrate protein remaining % ≤ 80%) | A (0% ≤ substrate protein remaining % ≤ 80%) | A (0% ≤ substrate protein remaining % ≤ 80%) | A (0% ≤ substrate protein remaining % ≤ 80%) |  | 500 to 1000 | 500 to 1000 | 500 to 1000
5 | O=C1CCC(N2C(=O)c3ccc(CN4CC=C(c5ccnc(Cl)c5Cl)CC4)cc3C2=O)C(=O)N1 (centres unmarked) [GT-06616, 5-((2',3'-dichloro-3,6-dihydro-[4,4'-bipyridin]-1(2H)-yl)methyl)-2-(2,6-dioxopiperidin-3-yl)isoindoline-1,3-dione] |  |  |  |  |  |  | 5.72 to 5.82 |  | A (0% ≤ substrate protein remaining % ≤ 80%) | A (0% ≤ substrate protein remaining % ≤ 80%) | B (80%< substrate protein remaining %≤ 100%) | A (0% ≤ substrate protein remaining % ≤ 80%) | A (0% ≤ substrate protein remaining % ≤ 80%) | A (0% ≤ substrate protein remaining % ≤ 80%) |  | 500 to 1000 | 100 to 500 | 500 to 1000
6 | Cc1nc(C2=CCN(Cc3ccc4c(c3)C(=O)N(C3CCC(=O)NC3=O)C4=O)CC2)c2ccsc2n1 (centres unmarked) [GT-06678, 2-(2,6-dioxopiperidin-3-yl)-5-((4-(2-methylthieno[2,3-d]pyrimidin-4-yl)-3,6-dihydropyridin-1(2H)-yl)methyl)isoindoline-1,3-dione] |  |  |  |  |  |  |  |  | A (0% ≤ substrate protein remaining % ≤ 80%) | A (0% ≤ substrate protein remaining % ≤ 80%) | B (80%< substrate protein remaining %≤ 100%) | A (0% ≤ substrate protein remaining % ≤ 80%) | A (0% ≤ substrate protein remaining % ≤ 80%) | A (0% ≤ substrate protein remaining % ≤ 80%) |  | 100 to 500 | 100 to 500 | 100 to 500
7 | O=C1CCC(N2C(=O)c3ccc(CN4CC=C(c5ncc6ccsc6n5)CC4)cc3C2=O)C(=O)N1 (centres unmarked) [GT-06683, 2-(2,6-dioxopiperidin-3-yl)-5-((4-(thieno[2,3-d]pyrimidin-2-yl)-3,6-dihydropyridin-1(2H)-yl)methyl)isoindoline-1,3-dione] |  |  |  |  |  |  |  |  | A (0% ≤ substrate protein remaining % ≤ 80%) | A (0% ≤ substrate protein remaining % ≤ 80%) | A (0% ≤ substrate protein remaining % ≤ 80%) | A (0% ≤ substrate protein remaining % ≤ 80%) | B (80%< substrate protein remaining %≤ 100%) | A (0% ≤ substrate protein remaining % ≤ 80%) |  | 500 to 1000 | 100 to 500 | 500 to 1000
8 | O=C1CCC(N2C(=O)c3ccc(CN4C5CCC4CN(c4cccc(Cl)c4Cl)C5)cc3C2=O)C(=O)N1 (centres unmarked) [GT-06694, 5-((3-(2,3-dichlorophenyl)-3,8-diazabicyclo[3.2.1]octan-8-yl)methyl)-2-(2,6-dioxopiperidin-3-yl)isoindoline-1,3-dione] |  |  |  |  |  |  |  |  | A (0% ≤ substrate protein remaining % ≤ 80%) | B (80%< substrate protein remaining %≤ 100%) | A (0% ≤ substrate protein remaining % ≤ 80%) | B (80%< substrate protein remaining %≤ 100%) | B (80%< substrate protein remaining %≤ 100%) | A (0% ≤ substrate protein remaining % ≤ 80%) |  | 500 to 1000 | 100 to 500 | 500 to 1000
9 | O=C1CCC(N2C(=O)c3ccc(CN4CC=C(c5c[nH]c6ncccc56)CC4)cc3C2=O)C(=O)N1 (centres unmarked) [GT-06706, 5-((4-(1H-pyrrolo[2,3-b]pyridin-3-yl)-3,6-dihydropyridin-1(2H)-yl)methyl)-2-(2,6-dioxopiperidin-3-yl)isoindoline-1,3-dione] |  |  |  |  |  |  |  |  | A (0% ≤ substrate protein remaining % ≤ 80%) | A (0% ≤ substrate protein remaining % ≤ 80%) | A (0% ≤ substrate protein remaining % ≤ 80%) | A (0% ≤ substrate protein remaining % ≤ 80%) | A (0% ≤ substrate protein remaining % ≤ 80%) | A (0% ≤ substrate protein remaining % ≤ 80%) |  | 500 to 1000 | 100 to 500 | 500 to 1000

Source: patent publication EP4745137A1 (Gluetacs Therapeutics (Shanghai) Co., Ltd., priority 2023, dated 2025)
